US20220062240A1, “METHODS OF TREATING CANCER USING A CLK INHIBITOR” (BioSplice Therapeutics, Inc., priority 2018, published 2022)
pEC50: −log10 of the molar value. Where two headings read alike, the source gives them in different places.

Key:
CLK2 = biological target: T1, CLK2 (Homo sapiens, UniProt P49760); assay: CLK2 kinase activity assay (Z-lyte, Ser/Thr 6 peptide); assay type: biochemical; details: recombinant CLK2 kinase, ATP 60 μM; read-out: EC50
T1 construct: purchased Thermo Fisher (Life Technologies), Z'-LYTE Kinase Assay Kits
Description: All reactions were performed in duplicate.

[1] = test system: haematopoietic & lymphoid tumors (13 cell lines); assay: CellTiter-Glo Viability Assay, haematopoietic & lymphoid tumors; assay type: cell-based; details: Homo sapiens, inhibition of cancer cell proliferation
T47D = assay: CellTiter-Glo Viability Assay, breast cancer; assay type: cell-based; details: Homo sapiens, 96 h, breast cancer, four days, read-out: EC50
MCF7 = assay: CellTiter-Glo Viability Assay, breast cancer; assay type: cell-based; details: Homo sapiens, 96 h; MCF7, breast cancer, four days; read-out: EC50
BT-549 = assay: CellTiter-Glo Viability Assay, breast cancer; assay type: cell-based; details: Homo sapiens, 96 h; BT-549, breast cancer, four days; read-out: EC50
MDA-MB-231-Luc = assay: CellTiter-Glo Viability Assay, breast cancer; assay type: cell-based; details: Homo sapiens, 96 h; MDA-MB-231-Luc, breast cancer, four days; read-out: EC50
DU4475 = assay: CellTiter-Glo Viability Assay, breast cancer; assay type: cell-based; details: Homo sapiens, DU-4475, 96 h; DU4475, breast cancer, four days; read-out: EC50
CAMA1 = assay: CellTiter-Glo Viability Assay, breast cancer; assay type: cell-based; details: Homo sapiens, CAMA-1, 96 h; CAMA1, breast cancer, four days; read-out: EC50
ZR-75-1 = assay: CellTiter-Glo Viability Assay, breast cancer; assay type: cell-based; details: Homo sapiens, 96 h; ZR-75-1, breast cancer, four days; read-out: EC50
HCC1599 = assay: CellTiter-Glo Viability Assay, breast cancer; assay type: cell-based; details: Homo sapiens, 96 h; HCC1599, breast cancer, four days; read-out: EC50
[2] = test system: lung cancer (4 cell lines); assay: CellTiter-Glo Viability Assay, lung cancer; assay type: cell-based; details: Homo sapiens, inhibition of cancer cell proliferation
all 50 cell lines = assay: CellTiter-Glo Viability Assay, average across all cell lines; assay type: cell-based; details: Homo sapiens; across all 50 cell lines; read-out: average EC50 for inhibition of cancer cell proliferation
Summary of the method: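 Proliferation of a multi-tissue human cancer line panel is assessed over four days at 37° C and 5% CO2, seeding 300-3,000 cells/well. Viability is quantified by CellTiter-Glo luminescence, and EC50 values are calculated.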

[3] = test system: ovarian cancer (4 cell lines); assay: CellTiter-Glo Viability Assay, ovarian cancer; assay type: cell-based; details: Homo sapiens, inhibition of cancer cell proliferation
[4] = test system: liver cancer (3 cell lines); assay: CellTiter-Glo Viability Assay, liver cancer; assay type: cell-based; details: Homo sapiens, inhibition of cancer cell proliferation
[5] = test system: colorectal cancer (6 cell lines); assay: CellTiter-Glo Viability Assay, colorectal cancer; assay type: cell-based; details: Homo sapiens, inhibition of cancer cell proliferation
[6] = test system: prostate cancer (5 cell lines); assay: CellTiter-Glo Viability Assay, prostate cancer; assay type: cell-based; details: Homo sapiens
[7] = test system: pancreatic cancer (8 cell lines); assay: CellTiter-Glo Viability Assay, pancreatic cancer; assay type: cell-based; details: Homo sapiens, inhibition of cancer cell proliferation
[8] = DND41, DND-41 cell line, read-out: Haematopoietic & Lymphoid tumors, EC50 (μM) DND-41
[9] = MV4-11, MV-4-11 cell line, read-out: Haematopoietic & Lymphoid tumors, EC50 (μM) MV-4-11
[10] = Rec1, REC-1 cell line, read-out: Haematopoietic & Lymphoid tumors, EC50 (μM) REC-1
[11] = SU-DHL-4, SUDHL4 cell line, read-out: Haematopoietic & Lymphoid tumors, EC50 (μM) SUDHL4
[12] = HL-60 cell line, read-out: Haematopoietic & Lymphoid tumors, EC50 (μM) HL-60
[13] = JM1 cell line, read-out: Haematopoietic & Lymphoid tumors, EC50 (μM) JM1
[14] = JURKAT, Clone E6-1 cell line, read-out: Haematopoietic & Lymphoid tumors, EC50 (μM) JURKAT, Clone E6-1
[15] = JeKo-1 cell line, read-out: Haematopoietic & Lymphoid tumors, EC50 (μM) JeKo-1
[16] = KASUMI-1 cell line, read-out: Haematopoietic & Lymphoid tumors, EC50 (μM) KASUMI-1
[17] = Loucy cell line, read-out: Haematopoietic & Lymphoid tumors, EC50 (μM) Loucy
[18] = MOLT-4 cell line, read-out: Haematopoietic & Lymphoid tumors, EC50 (μM) MOLT-4
[19] = TF-1 cell line, read-out: Haematopoietic & Lymphoid tumors, EC50 (μM) TF-1
[20] = TOLEDO cell line, read-out: Haematopoietic & Lymphoid tumors, EC50 (μM) TOLEDO
[21] = A-427, A427 cell line, read-out: Lung cancer, EC50 (μM) A427
[22] = HCC78, HCC-78 cell line, read-out: Lung cancer, EC50 (μM) HCC-78
[23] = NCI-H460 cell line, read-out: Lung cancer, EC50 (μM) NCI-H460
[24] = NCI-H522 cell line, read-out: Lung cancer, EC50 (μM) NCI-H522
[25] = PA-1, PA1 cell line, read-out: Ovarian cancer, EC50 (μM) PA1
[26] = TOV112D, TOV-112D cell line, read-out: Ovarian cancer, EC50 (μM) TOV-112D
[27] = OV-90 cell line, read-out: Ovarian cancer, EC50 (μM) OV-90
[28] = OVCAR-3 cell line, read-out: Ovarian cancer, EC50 (μM) OVCAR-3
[29] = SNU-398, SNU398 cell line, read-out: Liver cancer, EC50 SNU398
[30] = HEPG2 cell line, read-out: Liver cancer, EC50 HEPG2
[31] = PLC/PRF/5 cell line, read-out: Liver cancer, EC50 PLC/PRF/5
[32] = HCT-116, HCT116 cell line, read-out: Colorectal cancer, EC50 (μM) HCT116
[33] = HT-29, HT29 cell line, read-out: Colorectal cancer, EC50 (μM) HT29
[34] = SW-620, SW620 cell line, read-out: Colorectal cancer, EC50 (μM) SW620
[35] = DLD-1 cell line, read-out: Colorectal cancer, EC50 (μM) DLD-1
[36] = SW48 cell line, read-out: Colorectal cancer, EC50 (μM) SW48
[37] = SW480 cell line, read-out: Colorectal cancer, EC50 (μM) SW480
[38] = DU-145, read-out: Prostate cancer EC50 Du-145
[39] = PC-3, PC3 cell line, inhibition of cancer cell proliferation, read-out: Prostate cancer EC50 PC3
[40] = 22Rv1 cell line, inhibition of cancer cell proliferation, read-out: Prostate cancer EC50 22Rv1
[41] = LNCap clone FGC cell line, inhibition of cancer cell proliferation, read-out: Prostate cancer EC50 LNCap clone FGC
[42] = VCaP (Sigma) cell line, inhibition of cancer cell proliferation, read-out: Prostate cancer EC50 VCaP (Sigma)

T1 sequence (P49760 whole entry): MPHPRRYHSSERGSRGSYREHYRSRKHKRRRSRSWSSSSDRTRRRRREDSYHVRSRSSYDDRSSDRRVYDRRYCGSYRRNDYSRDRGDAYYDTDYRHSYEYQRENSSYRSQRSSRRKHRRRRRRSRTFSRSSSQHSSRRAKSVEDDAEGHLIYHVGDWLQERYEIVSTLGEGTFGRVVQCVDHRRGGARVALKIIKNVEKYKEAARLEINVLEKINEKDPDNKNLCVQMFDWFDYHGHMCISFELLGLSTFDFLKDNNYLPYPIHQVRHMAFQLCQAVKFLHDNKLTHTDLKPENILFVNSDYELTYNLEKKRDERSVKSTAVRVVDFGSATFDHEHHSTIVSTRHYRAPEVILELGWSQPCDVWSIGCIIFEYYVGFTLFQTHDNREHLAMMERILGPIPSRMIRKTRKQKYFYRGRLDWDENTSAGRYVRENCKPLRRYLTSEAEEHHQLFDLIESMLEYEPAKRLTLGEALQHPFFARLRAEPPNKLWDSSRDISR

## Cn1cc(-c2ccc3cnc(NC(=O)c4ccc5c(c4)CNCC5)cc3c2)cn1 [Compound 74]
CLK2
  pEC50: 8.72
[1]; [8]
  EC50: 0.491 µM
[1]; [9]
  EC50: 0.076 µM
[1]; [10]
  EC50: 0.134 µM
[1]; [11]
  EC50: 0.376 µM
[1]; [12]
  EC50: 0.76 µM
[1]; [13]
  EC50: 0.135 µM
[1]; [14]
  EC50: 0.464 µM
[1]; [15]
  EC50: 0.157 µM
[1]; [16]
  EC50: 0.203 µM
[1]; [17]
  EC50: 0.241 µM
[1]; [18]
  EC50: 0.465 µM
[1]; [19]
  EC50: 0.673 µM
[1]; [20]
  EC50: 0.134 µM
T47D
  pEC50: 6.00
MCF7
  pEC50: 5.72
BT-549
  pEC50: 6.46
MDA-MB-231-Luc
  pEC50: 6.12
DU4475
  pEC50: 6.52
CAMA1
  pEC50: 6.16
ZR-75-1
  pEC50: 6.01
HCC1599
  pEC50: 6.77
[2]; [21]
  EC50: 0.355 µM
[2]; [22]
  EC50: 0.835 µM
[2]; [23]
  EC50: 0.574 µM
[2]; [24]
  EC50: 0.188 µM
All 50 cell lines
  pEC50: 6.30
[3]; [25]
  EC50: 0.495 µM
[3]; [26]
  EC50: 0.229 µM
[3]; [27]
  EC50: 1.49 µM
[3]; [28]
  EC50: 0.195 µM
[4]; [29]
  pEC50: 6.92
[4]; [30]
  pEC50: 6.15
[4]; [31]
  pEC50: 5.96
[5]; [32]
  EC50: 0.239 µM
[5]; [33]
  EC50: 0.52 µM
[5]; [34]
  EC50: 0.163 µM
[5]; [35]
  EC50: 0.215 µM
[5]; [36]
  EC50: 0.151 µM
[5]; [37]
  EC50: 0.313 µM
[6]; [38]
  pEC50: 6.26
[6]; [39]
  pEC50: 6.36
[6]; [40]
  pEC50: 6.46
[6]; [41]
  pEC50: 6.23
[6]; [42]
  pEC50: 6.08

## CN(C)Cc1cncc(-c2cnc3[nH]nc(-c4nc5c(-c6cc(F)cc(N7CCOCC7)c6)cncc5[nH]4)c3c2)c1 [Compound 46]
[7]; BXPC-3, BxPC3 cell line, read-out: Pancreatic cancer, EC50 BxPC3
  pEC50: 5.22
[7]; CAPAN-1, Capan1 cell line, read-out: Pancreatic cancer, EC50 Capan1
  pEC50: 5.63
[7]; Capan-2, Capan2 cell line, read-out: Pancreatic cancer, EC50 Capan2
  pEC50: 5.30
[7]; MIA PaCa-2 cell line, read-out: Pancreatic cancer, EC50 MIA PaCa-2
  pEC50: 6.38
[7]; PANC 05.04 cell line, read-out: Pancreatic cancer, EC50 PANC 05.04
  pEC50: 5.27
[7]; PANC-1 cell line, read-out: Pancreatic cancer, EC50 PANC-1
  pEC50: < 5.00
[7]; UPAFII cell line, read-out: Pancreatic cancer, EC50 UPAFII
  pEC50: 5.71
[1]; [8]
  EC50: 0.432 µM
[1]; [9]
  EC50: 0.039 µM
[1]; [10]
  EC50: 2.78 µM
[1]; [11]
  EC50: 0.398 µM
[1]; [12]
  EC50: 1.42 µM
[1]; [13]
  EC50: 0.176 µM
[1]; [14]
  EC50: 3.17 µM
[1]; [15]
  EC50: 0.182 µM
[1]; [16]
  EC50: 0.801 µM
[1]; [17]
  EC50: 0.466 µM
[1]; [18]
  EC50: 2.96 µM
[1]; [19]
  EC50: 6.09 µM
[1]; [20]
  EC50: 0.17 µM
T47D
  pEC50: 5.63
MCF7
  pEC50: < 5.00
BT-549
  pEC50: 5.93
MDA-MB-231-Luc
  pEC50: 5.68
DU4475
  pEC50: 5.40
CAMA1
  pEC50: 5.56
ZR-75-1
  pEC50: 5.77
HCC1599
  pEC50: 5.93
[2]; [21]
  EC50: 0.591 µM
[2]; [22]
  EC50: 4.68 µM
[2]; [23]
  EC50: > 10 µM
[2]; [24]
  EC50: 0.417 µM
All 50 cell lines
  pEC50: 5.54
[3]; [25]
  EC50: 0.795 µM
[3]; [26]
  EC50: 0.713 µM
[3]; [27]
  EC50: 5.69 µM
[3]; [28]
  EC50: 0.302 µM
[4]; [29]
  pEC50: 6.76
[4]; [30]
  pEC50: 5.44
[4]; [31]
  pEC50: < 5.00
[5]; [32]
  EC50: 0.86 µM
[5]; [33]
  EC50: 8.89 µM
[5]; [34]
  EC50: 0.473 µM
[5]; [35]
  EC50: 2.35 µM
[5]; [36]
  EC50: 0.469 µM
[5]; [37]
  EC50: 0.491 µM
[6]; [38]
  pEC50: 5.59
[6]; [39]
  pEC50: 5.93
[6]; [40]
  pEC50: 6.01
[6]; [41]
  pEC50: 5.11
[6]; [42]
  pEC50: 5.34
